According to the NIST ThermoML archive (doi:10.1021/acs.jced.8b01120):

Assay: xn = mol fraction of the nth substance listed
Details: 100 kPa, Liquid; for speed of sound: Single path-length method; for mass density: Vibrating tube method

CCCCN(CCCC)CCCC [tributylamine] + COC(C)=O
Details	mass density, 293.15 K [kg/m3]	mass density, 298.15 K [kg/m3]	mass density, 303.15 K [kg/m3]	mass density, 308.15 K [kg/m3]	mass density, 313.15 K [kg/m3]	speed of sound, 293.15 K [m/s]	speed of sound, 298.15 K [m/s]	speed of sound, 303.15 K [m/s]	speed of sound, 308.15 K [m/s]	speed of sound, 313.15 K [m/s]
x1 = 0.0501	913.106	906.572	900.184	893.938	887.487	1184.6	1160.4	1140	1113.4	1094.9
x1 = 0.1009	893.96	887.924	881.943	875.744	869.547	1188.9	1165.2	1144.5	1118	1099.6
x1 = 0.2003	864.36	858.987	853.583	848.346	842.744	1197.3	1174.1	1153.7	1128.1	1109.7
x1 = 0.2941	843.967	838.976	833.982	828.97	823.819	1205.6	1182.6	1161	1137.7	1118.6
x1 = 0.4009	826.428	821.765	817.081	812.409	807.525	1213.9	1191.9	1171.2	1148.1	1129.6
x1 = 0.5004	813.696	809.242	804.881	800.355	795.747	1222.5	1200.4	1180.6	1158.4	1138.9
x1 = 0.6008	803.345	799.107	794.831	790.504	786.225	1230.4	1209.5	1190.4	1167.9	1149.1
x1 = 0.7008	794.987	790.893	786.764	782.571	778.432	1239	1218.5	1198.7	1177.6	1159
x1 = 0.8004	788.147	784.162	780.197	776.154	772.052	1247.6	1227	1207.9	1187.8	1168.5
x1 = 0.9003	782.234	778.353	774.459	770.516	766.597	1255.7	1236.1	1217	1197.3	1177.8
x1 = 1	777.01	773.283	769.55	765.81	762.06	1264.2	1245.2	1226.2	1207.4	1188.8
